Test results taken from patent publication US8946290B2, “Combination of selected opioids with muscarine antagonists for treating urinary incontinence” (Gruenenthal GmbH, priority 2001, dated 2015).

Test system: bladder function
Assay: Cystometry on anaesthetized naive rats
Assay type: in vivo
Details: anaesthetized naive female rats, rate of contractions (micturition events/min)
Description: The cystometric investigation on naive female rats was carried out by the method of Kimura et al. (Kimura et al., 1996, Int. J. Urol. 3:218-227). The abdomen of anaesthetized, ventilated rats is opened up and the ureter is ligated. The urine is drained from the kidneys. A catheter is inserted into the bladder and fixed. […] After stable starting values are reached, the test substance is administered intravenously. An influence on bladder function manifests itself via suppression of the spontaneous contractions.
In the present example, compound A ((+)-(2R,3R)-1-dimethylamino-3-(3-methoxy-phenyl)-2-methyl-pentan-3-ol; hydrochloride) in the dosage of 0.1 mg/kg intravenous was combined with compound B (oxybutynin) in the dosage of 0.03 mg/kg intravenous and the action of this combination was compared with that of the individual substances.

CC[C@](O)(c1cccc(OC)c1)[C@H](C)CN(C)C.Cl [Compound A, (+)-(2R,3R)-1-dimethylamino-3-(3-methoxy-phenyl)-2-methyl-pentan-3-ol; hydrochloride]
Inhibition of the rate of contractions compared with the pretest (0.1 mg/kg i.v.): 21.7% MPE

CCN(CC)CC#CCOC(=O)C(O)(c1ccccc1)C1CCCCC1 (centres unmarked) [Compound B, oxybutynin]
Inhibition of the rate of contractions compared with the pretest (0.03 mg/kg i.v.): 10.7% MPE
